Measurements taken from PMC4492764, “Evaluation of biomarkers for in vitro prediction of drug-induced nephrotoxicity: comparison of HK-2, immortalized human proximal tubule epithelial, and primary cultures of human proximal tubular cells” (Pharmacology Research & Perspectives, 2015).
Counter-ions that a name gives are not always drawn.

What was measured:
Type in all cases: cell-based, human
NGAL mRNA = NGAL mRNA qRT-PCR in HK-2 cells; set-up: key to Upregulation of NGAL HK-2 R: +: statistically significant increase; −: no significant increase; conditions: for Upregulation of NGAL HK-2 R: mRNA levels, 72 h time point
Protocol: HK-2 cells (ATCC CRL-2190; Manassas, VA) were maintained in DMEM/F12 (Life Technologies; Sydney, NSW, Australia) supplemented with 5 μg/mL insulin, 5 μg/mL transferrin, 5 ng/mL sodium selenite (ITS; Roche; […] (passage 2) and culture kits were purchased from Lonza. […] were maintained in Renal Epithelial Cell BulletKitTM (CC-3190, Lonza) at 37°C and 5% CO2 atmosphere. Cells were passaged to 96-well plates with a density of 4000 cells/well. After 24 h culture, compounds with different concentration series were added into each well and incubated for 4, 24, 48, and 72 h. HK-2 and […] were treated with compounds for 4, 24, 48, and 72 h, then the cells were lysed and the RNA reverse transcribed with the TaqMan® Gene Expression Cells-to-CTTM Kit (Life Technologies) according to the manufacturer's instructions. […] Hs00273334_m1), Lcn2 (NGAL; Hs01008571_m1), and Csf1 (M-CSF; Hs00174164_m1). All probes span an exon-exon junction. The real-time quantitative reverse transcription PCR (qRT-PCR) was performed in a 10 μl final reaction mixture using a ViiA 7TM system (Applied Biosystems®, Sydney, NSW, Australia) based on the following thermo cycling conditions: 10 min at 95°C for one cycle, 15 sec at 95°C, 60 sec at 60°C for 40 cycles. The ViiA 7TM software was used for data analysis with Hprt1 expression used for normalization. All assays were performed at least three times, with at least two technical replicates in each assay.

KIM-1 = KIM-1 protein ELISA in HK-2 cells; set-up: key: +: statistically significant increase; −: no significant increase; conditions: protein levels in culture medium; 72 h time point
Protocol: (§1) HK-2 cells (ATCC CRL-2190; Manassas, VA) were maintained in DMEM/F12 (Life Technologies; Sydney, NSW, Australia) supplemented with 5 μg/mL insulin, 5 μg/mL transferrin, 5 ng/mL sodium selenite (ITS; Roche; […] (passage 2) and culture kits were purchased from Lonza. […] were maintained in Renal Epithelial Cell BulletKitTM (CC-3190, Lonza) at 37°C and 5% CO2 atmosphere. Cells were passaged to 96-well plates with a density of 4000 cells/well. After 24 h culture, compounds with different concentration series were added into each well and incubated for 4, 24, 48, and 72 h. KIM-1 (DY1750), NGAL (DY1757), and M-CSF (DY216) Duo-Set® ELISA kits were purchased from R&D systems (Minneapolis, MN). Sandwich-ELISA experiments were conducted following the manufacturer's instructions with slight modifications. A 96-well microplate (MaxiSorp®, Nunc, Thermo Scientific, NSW, Australia) was coated with 100 μL of capture antibodies (diluted 1:200 in PBS) and incubated overnight. The plate was then washed twice with washing buffer (0.05% Tween 20 in PBS, pH 7.4) and blocked by adding 300 μL of blocking buffer (1% bovine serum albumin (BSA) in PBS) for 1 h at room temperature. After washing two times with PBS, 100 μL of samples (cell culture media or cell lysates) or standards were then added to each well and incubated for 2 h at room temperature. The biotinylated detection antibodies were then diluted in blocking buffer, added to each well and incubated for 2 h. Horseradish peroxidase (HRP)-labeled streptavidin (100 μL) was then added to bind to detection antibodies. To each well, 100 μL of substrate solution (1:1 mixture of H2O2 and tetramethylbenzidine) was added and incubated for 20 min before reaction termination with 50 μL of stop solution (2N H2SO4). The optical density of each well was measured at 450 nm using a POLARstar Omega plate reader (BMG Labtech). All assays were performed at least three times, with at least two technical replicates in each assay.

NGAL [1] = assay: NGAL protein ELISA in HK-2 cells; set-up: key: +: statistically significant increase; −: no significant increase; conditions: protein levels in culture medium; 72 h time point
Protocol: as §1

NGAL [2] = assay: NGAL protein ELISA in freshly isolated hPT cells; conditions: for NGAL protein upregulation in hPT cells: high doses, within 24 h; for Upregulation of NGAL hPT P(L): protein levels in cell lysates, table title says 72 h time point
Protocol: hPT cells were derived from whole human kidneys procured by the International Institute for the Advancement of Medicine (Edison, NJ). All tissues were scored by a pathologist as normal (i.e., derived from noncancerous, nondiseased tissue). […] Whole kidneys were perfused with Wisconsin medium and kept on ice until they arrived at the laboratory, which was usually within 24 h of removal from the donor. All buffers were continuously bubbled with 95% O2/5% CO2 and were maintained at 37°C. Minced cortical pieces from whole kidneys were subjected to collagenase digestion for 60 min, after which the supernatant was filtered through a 70-μm mesh filter to remove tissue fragments, centrifuged at 150g for 7 min, and the pellet resuspended in Dulbecco’s Modified Eagle’s Medium: […] Approximately, 5–7 × 10^6 cells were obtained per 1 g of human kidney cortical tissue. […] Composition of this supplemented medium was based on earlier work establishing optimal conditions for primary culture of rat PT cells (Lash et al., [1995]). Basal medium was a 1:1 mixture of DMEM/F12. […] Cultures were grown at 37°C in a humidified incubator under an atmosphere of 95% air/5% CO2 at pH 7.4. Cultures were grown to approximately 80–90% confluence (generally 5–6 days) prior to experiments. Cells were harvested by either scraping the flasks with a Teflon scraper or by brief incubation with Cellstripper (Cellgro, Herndon, VA) (in Ca^2+- and Mg^2+-free Hanks’ buffer). KIM-1 (DY1750), NGAL (DY1757), and M-CSF (DY216) Duo-Set® ELISA kits were purchased from R&D systems (Minneapolis, MN). Sandwich-ELISA experiments were conducted following the manufacturer’s instructions with slight modifications. A 96-well microplate (MaxiSorp®, Nunc, Thermo Scientific, NSW, Australia) was coated with 100 μL of capture antibodies (diluted 1:200 in PBS) and incubated overnight. The plate was then washed twice with washing buffer (0.05% Tween 20 in PBS, pH 7.4) and blocked by adding 300 μL of blocking buffer (1% bovine serum albumin (BSA) in PBS) for 1 h at room temperature. After washing two times with PBS, 100 μL of samples (cell culture media or cell lysates) or standards were then added to each well and incubated for 2 h at room temperature. The biotinylated detection antibodies were then diluted in blocking buffer, added to each well and incubated for 2 h. Horseradish peroxidase (HRP)-labeled streptavidin (100 μL) was then added to bind to detection antibodies. To each well, 100 μL of substrate solution (1:1 mixture of H2O2 and tetramethylbenzidine) was added and incubated for 20 min before reaction termination with 50 μL of stop solution (2N H2SO4). The optical density of each well was measured at 450 nm using a POLARstar Omega plate reader (BMG Labtech). All assays were performed at least three times, with at least two technical replicates in each assay.

Compound | NGAL mRNA level in HK-2 cells (NGAL mRNA; 72 h exposure, P < 0.01) | Upregulation of NGAL HK-2 R (NGAL mRNA) | Upregulation of KIM-1 HK-2 P (KIM-1) | Upregulation of NGAL HK-2 P (NGAL [1]) | NGAL protein upregulation in hPT cells (NGAL [2]) | Upregulation of NGAL hPT P(L) (NGAL [2])
N.N.[Cl][Pt][Cl] [Cisplatin, cisplatin] | clearly increased | + | − | − | significant upregulation | >60-fold
CNC(C)C1CCC(N)C(OC2C(N)CC(N)C(OC3OCC(C)(O)C(NC)C3O)C2O)O1 (stereo not shown) [Gentamicin, gentamicin sulfate] |  | − | − | − | significant upregulation | >60-fold
Colistin sulfate |  | − | − | − | significant upregulation | >60-fold
